The source of these data is US20200163854A1, “LIFE-EXTENDING AGENT, ANTI-AGING AGENT, COSMETIC, AND FOOD/BEVERAGE COMPOSITION” (KYOTO UNIVERSITY, priority 2017, published 2020).

The test system of experiment [1] is Menin gene and Bach2 gene mRNA. Conditions: 0.2 mg/ml in water, free intake, Day 495; compared to control group or L-proline group.
Procedure: (§1) After euthanasia on Day 495, the spleen was removed and ground through a 0.45-μM strainer to prepare a suspension of spleen-derived cells (FIG. 4). After centrifugation at 1000 g for 5 minutes, the supernatant was removed by suction. Thereafter, 2 ml of ammonium chloride hemolytic agent (distilled water containing 8.99 mg/ml of NH4Cl, 1 mg/ml of KHCO3, and 37 μg/ml of EDTA4Na) was added to the cell pellets, followed by suspension. The resulting product was then allowed to stand at room temperature for 2 minutes. Subsequently, 10 ml of RPMI 1640 medium with 10% FBS was added thereto, the mixture was centrifuged at 1000 g for 5 minutes, and the supernatant was removed by suction. Then, 5 ml of RPMI 1640 medium with 10% FBS was added thereto to prepare a cell suspension (spleen-derived mononuclear cells).
Total RNA was extracted from 1×10^5 spleen-derived mononuclear cells of Example 4 using an RNeasy Mini Kit, produced by Qiagen. […] The mRNA levels of the Menin gene and the Bach2 gene were quantified as a ratio relative to the β-actin gene mRNA level, and calculated taking the value of the spleen-derived mononuclear cells of the control group as 1.
Experiment [2] has as its system spleen-derived mononuclear cells (T cells with senescence marker). Conditions: 0.2 mg/ml in water, free intake, Day 495; compared to control group or L-proline group.
Procedure: as §1
After placing 1×10^6 spleen-derived mononuclear cells of Example 4 into a 1.5-ml Eppendorf tube, centrifugation was performed at 900 g for 5 minutes. Then, the supernatant was removed by suction, and 50 μl of FACS buffer (PBS(−) in which 0.5% BSA, 0.01% NaNO, and 1 mM EDTA were dissolved) was added thereto. Thereafter, incubation was performed on ice for 20 minutes with an FITC-labeled mouse anti-CD27 antibody (NOVUS; NPB-1-44021) and a PE-labeled mouse anti-CD62L antibody (ABGENT; ATB10190). […]
Experiment [3] concerns Drosophila flies, premature aging strain (sod1[n1] mutants), male. The settings on record: vs control medium. The procedure: Mutants of adult Drosophila flies (male) containing Cu/Zn-SOD with reduced activity due to amino acid substitution (sod1[n1]) were bred in a plastic tube having a diameter of 25 mm, and fed with a simple medium (instant medium) for Drosophila that contains D-proline (D-Pro) at a concentration of 20, 60, 200, or 400 μg/ml, or L-proline (L-Pro) at a concentration of 400 μg/ml, followed by measuring the life span of the flies. […] For the control, a simple medium to which no D-Pro or L-Pro was added was used.
Mutants of adult Drosophila flies (male) containing Cu/Zn-SOD with reduced activity due to amino acid substitution (sod1[n1]) were bred in a plastic tube having a diameter of 25 mm, and fed with a simple medium (instant medium) for Drosophila that contains D-proline (D-Pro) at a concentration of 400 μg/ml, or D-aspartic acid (D-Asp) at a concentration of 60, 200, or 400 μg/ml, followed by measuring the life span of the flies. […] For the control, a simple medium to which no D-Pro or D-Asp was added was used.
Mutants of adult Drosophila flies (male) containing Cu/Zn-SOD with reduced activity due to amino acid substitution (sod1[n1]) were bred in a plastic tube having a diameter of 25 mm, and fed with a simple medium (instant medium) for Drosophila that contains D-proline (D-Pro) at a concentration of 400 μg/ml, or D-hydroxyproline (D-HP) at a concentration of 60, 200, or 400 μg/ml, followed by measuring the life span of the flies. […] For the control, a simple medium to which no D-Pro or D-HP was added was used.

The mark [4] stands for this setting: mixed with feed at 60, 200 or 400 μg/ml.

Read-outs that look alike come from different tables or passages of the source.

For `O=C(O)[C@H]1CCCN1` [D-proline], in experiment [1], the “mRNA expression of the Bach2 gene (ratio to β-actin, control = 1)” value is recorded as “higher mRNA expression” and the “mRNA expression of the Menin gene (ratio to β-actin, control = 1)” value is recorded as “higher mRNA expression”. Moreover, in experiment [2], the “number of T cells with a senescence marker of CD62-negative or CD27-negative” value is given as “significantly reduced number”. Also, in experiment [3] (mixed with feed at 400 μg/ml), the “life span of aging-promoting adult Drosophila flies” value (shortened to “life span”) is on record as “significantly higher effect”. Besides, the “life span” value in experiment [3] (mixed with feed at 20, 60, 200 or 400 μg/ml) is “dose-dependently extends the life span”.
As for `O=C(O)[C@@H]1CCCN1` [L-proline, reference compound], in experiment [3] (mixed with feed at 400 μg/ml), the “life span” value is “no effect”.
As for `O=C(O)[C@H]1C[C@H](O)CN1` [D-hydroxyproline], the figures for the “life span” value in experiment [3] (mixed with feed at 400 μg/ml) and in experiment [3] (setting [4]) were “extends the life span” and “extended the life span of Drosophila flies in a concentration-dependent manner”, respectively.
Regarding `N[C@H](CC(=O)O)C(=O)O` [D-aspartic acid], the figures for the “life span” value in experiment [3] (mixed with feed at 400 μg/ml) and in experiment [3] (setting [4]) were “extends the life span” and “extended the life span of Drosophila flies in a concentration-dependent manner”, respectively.
